Consider 1 molecule from article PMC13427755 (Nature Communications, 2026).

Holding throughout (type): in vivo, human
Test [1] concerns surfactant protein D (SP-D). The experiment in a line: SP-D in plasma, MSD-ECL assay. Conditions: for SP-D in plasma, Δ from baseline, median (IQR): Day 14 minus screening, N = 8; for SP-D in plasma, median difference vs placebo (Hodges-Lehmann): N = 8 vs pooled placebo N = 5. Here is the method:
Blood samples for biomarker assessments in PBMCs and platelet-rich plasma were collected prior to the initial dose and on day 14 following the last dose. Following optimization for detection of analytes in IPF matrices, meso-scale discovery electrochemiluminescence (MSD-ECL) assays were performed at BioAgylitix for SP-D (#K1519XR-2, MSD) in plasma and AKT/pAKT (#K15100D-1, MSD) in PBMCs according to manufacturer’s instructions.
(§1) Descriptive statistics are reported as medians with interquartile ranges (IQR). The Hodges-Lehmann estimator was used for the median difference between groups (treatment minus placebo), with approximate 90% confidence intervals (asymmetric, exact level varied slightly with small n). Cliff’s delta was calculated as effect size using the formula δ = (2U / (n1 × n2)) − 1, with thresholds: |δ | <0.3 small effect, 0.3–0.5 medium effect, >0.5 large effect. […] No adjustment for multiplicity was performed, as these were pre-specified, hypothesis-driven exploratory analyses. All biomarker statistical analyses were conducted using GraphPad Prism Version v10.0.

The test system of test [2] is collagen type 1 alpha chain 1 (COL1A1). The experiment in a line: COL1A1 ELISA in deep bronchial brushings (DBB). Conditions: for COL1A1 in DBB, Δ from baseline, median (IQR): Day 14 minus screening.
Description: (§2) Bronchoscopists were instructed to obtain a total of 6 brushings from 3 of the basilar bronchial segments of the right lower lobe: the anterior basilar segment, the lateral basilar segment, and the posterior basilar segment. With the bronchoscope proximal to or within the orifice of the appropriate basilar segment, the brush sheath was to be passed out 5 cm beyond the subsegment orifice, and then the brush was fully extended an additional 1 cm for a total of 6 cm beyond the orifice of the subsegmental bronchus. At the desired depth, the sheath was to be gently pulled back and forward for 15 strokes to brush the small airways. The brushing process was repeated using any combination of the 3 basilar segments described above, at the discretion of the bronchoscopist, for a total of 6 six separate brush samples.
(§3) Protein isolation and preparation of DBB samples for ELISAs were performed as previously described[47] according to manufacturer’s instructions for COL1A1 (#ab210966, abcam), CXCL7 (#LS-F4967-1, LS Bio), GAL7 (#DY1339, R&D Systems), IL-11 (#DY218, R&D Systems), and TSLP (#DY1398, R&D Systems).
as §1

Test [3] concerns chemokine (C-X-C motif) ligand 7 (CXCL7). The experiment in a line: CXCL7 ELISA in deep bronchial brushings (DBB). The note with it: for CXCL7 in DBB, Δ from baseline, median (IQR): Day 14 minus screening, N = 8; for CXCL7 in DBB, median difference vs placebo (Hodges-Lehmann): N = 8 vs pooled placebo N = 6.
Description: as §2, §3, §1
Background: In an ELISA, binding on a coated surface is turned into a signal by an enzyme label.

Where a SMILES comes first, the peptide text is derived from it.

As to `CC(C)[C@H](NC(=O)[C@@H](NC(=O)[C@H](Cc1ccccc1)NC(=O)[C@@H](NC(=O)[C@@H](NC(=O)[C@@H](N)Cc1ccccc1)[C@@H](C)O)[C@@H](C)O)[C@@H](C)O)C(=O)N[C@H](C(=O)O)[C@@H](C)O` [LTI-03] (H-FTTFTVT-OH; N-terminus and C-terminus assumed), the “SP-D in plasma, Δ from baseline, median (IQR)” value is 3290 pg/mL in test [1] (5 mg/day) and -3264 pg/mL in test [1] (10 mg/day). In addition, the “SP-D in plasma, median difference vs placebo (Hodges-Lehmann)” value in test [1] (5 mg/day, one-tailed Mann-Whitney p = 0.3108) is 3428 pg/mL; in test [1] (10 mg/day, one-tailed Mann-Whitney p = 0.1111) it was -8368 pg/mL. The “decrease of plasma SP-D compared to placebo” value in test [1] (10 mg/day, baseline to Day 14, p = 0.1111, not statistically significant) turned out to be 5%. The “COL1A1 in DBB, Δ from baseline, median (IQR)” value in test [2] (5 mg/day, N = 8) is 0.16 pg/mg protein; in test [2] (10 mg/day, N = 9), −11.9 pg/mg protein. The “COL1A1 in DBB, median difference vs placebo (Hodges-Lehmann)” value in test [2] (5 mg/day, N = 8 vs pooled placebo N = 6, one-tailed Mann-Whitney p = 0.0709) is listed as −3.486 pg/mg protein; in test [2] (10 mg/day, N = 9 vs pooled placebo N = 6, one-tailed Mann-Whitney p = 0.0248) it was −20.95 pg/mg protein. Further, the “CXCL7 in DBB, Δ from baseline, median (IQR)” value in test [3] (5 mg/day) is −100.2 ng/mg protein; in test [3] (10 mg/day), −1276.23 ng/mg protein. Also, the “CXCL7 in DBB, median difference vs placebo (Hodges-Lehmann)” value in test [3] (5 mg/day, one-tailed Mann-Whitney p = 0.5) is 8.265 ng/mg protein; in test [3] (10 mg/day, one-tailed Mann-Whitney p = 0.0248), −1262 ng/mg protein.
